Like-named read-outs stand apart in the source and are kept apart here.

Consider six compounds from US11980631B2, “β-lactamase inhibitors” (priority 2017, dated 2024).

Assay [1] concerns S. maltophilia. Put plainly: microbe, parasite or virus in culture. The assay is classed as cell-based, Stenotrophomonas maltophilia. The conditions noted are these: no inhibitor; for MIC: Stenotrophomonas maltophilia. The method, then:
S. maltophilia clinical isolates were K279a, a well characterised isolate from Bristol, UK, or were obtained from the SENTRY antimicrobial resistance survey, as previously reported. […] All growth media were from Oxoid. Chemicals were from Sigma, unless otherwise stated.
Susceptibility to β-lactams in bacterial isolates was determined using the CLSI microtitre minimum inhibitory concentration (MIC) methodology with Muller-Hinton Broth using 96 well plates (Corning, Costar). The MIC was determined as the lowest concentration of β-lactam required to entirely suppress growth. Inhibitor concentrations were kept constant at 2 mg/L or 10 mg/L in all assays. Interpretation of susceptibility/resistance was by reference to CLSI clinical breakpoints for S. maltophilia (ceftazidime) and for Pseudomonas aeruginosa (for aztreonam and meropenem, since no S. maltophilia breakpoints are available).

Assay [2] deals with L1 (class B3 MBL) (Stenotrophomonas maltophilia (Pseudomonas maltophilia) (Xanthomonas maltophilia), UniProt P52700). Briefly: Steady-state hydrolysis of β-lactams by purified L1. In kind it is biochemical, S. maltophilia. From the text:
(§1) As a prelude to investigation the effects of β-lactamase inhibitors, the hydrolysis of a range of candidate β-lactams in vitro by purified L1 (class B3 MBL) and L2 (class A ESBL) under steady state conditions were investigated.

In assay [3] the target is L2 (class A ESBL) (Stenotrophomonas maltophilia (Pseudomonas maltophilia) (Xanthomonas maltophilia), UniProt P96465). Put plainly: Steady-state hydrolysis of β-lactams by purified L2. The assay is classed as biochemical, S. maltophilia.
Sequence of L2 (class A ESBL) (P96465 36-303 limits assumed): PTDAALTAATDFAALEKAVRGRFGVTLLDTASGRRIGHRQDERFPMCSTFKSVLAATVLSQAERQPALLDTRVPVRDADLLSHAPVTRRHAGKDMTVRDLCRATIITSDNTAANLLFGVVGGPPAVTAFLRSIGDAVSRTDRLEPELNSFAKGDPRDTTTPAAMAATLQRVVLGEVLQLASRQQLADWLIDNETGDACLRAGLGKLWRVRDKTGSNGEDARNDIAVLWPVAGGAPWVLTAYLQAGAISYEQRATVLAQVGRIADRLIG
Excerpt: as §1

The target in assay [4] is BlaC (Mycobacterium tuberculosis (strain ATCC 25618 / H37Rv), UniProt P9WKD3). Put plainly: BlaC inhibition assay (FC5 hydrolysis, fluorescence). In kind it is biochemical. The method, then: Recombinant BlaC, with an N-terminal His-tag, was produced in E. coli BL21(DE3) cells using auto-induction medium supplemented with 50 μg mL^−1 ampicillin. Cells were grown for four hours at 37° C. before cooling to 18° C. and continuing growth overnight. Cells were harvested by centrifugation (10 min, 10000 g).
Sequence of BlaC (P9WKD3 35-307 limits assumed): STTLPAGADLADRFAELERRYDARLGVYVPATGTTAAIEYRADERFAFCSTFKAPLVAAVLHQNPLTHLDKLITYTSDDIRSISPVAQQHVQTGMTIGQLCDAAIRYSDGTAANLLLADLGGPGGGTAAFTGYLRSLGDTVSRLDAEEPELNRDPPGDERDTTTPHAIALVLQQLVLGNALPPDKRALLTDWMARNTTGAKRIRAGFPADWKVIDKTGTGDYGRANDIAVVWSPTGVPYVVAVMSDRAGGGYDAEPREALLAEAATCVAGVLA
FC5 was stored as a 2.5 mM solution in assay buffer supplemented with 10% (v/v) DMSO. Fluorescence measurements were made using a PHERAstar multi-mode plate reader (BMG Labtech). All assays were carried out at 25° C. Fluorescence assays were carried out using black 96 well format half area clear® plates (Greiner Bio-One) with a final assay volume of 100 μL. FC5 hydrolysis was followed by fluorescence (λex=380 nm, λem=460 nm) corresponding to the release of the umbelliferone fluorophore. The optimum concentration of enzyme for steady-state measurements was determined by examining the rate of substrate hydrolysis at varied concentrations of enzyme, with the concentration at which the initial rate remained constant for 5-10 min being selected as an appropriate enzyme concentration. Initial rates of substrate hydrolysis were determined at varying substrate concentrations. Steady-state kinetic parameters were determined by fitting of initial rates to the Michaelis-Menten equation using GraphPad Prism 5 software.
Inhibition assays were performed by monitoring the initial rate of FC5 hydrolysis via fluorescence at a range of inhibitor concentrations. Inhibitors were stored either as solids or as 100 mM stock solutions in DMSO, these were diluted to appropriate concentrations in the assay buffer. Typically inhibition assays were carried out using black 384 well format pclear® plates (Griener Bio-One) with a final assay volume of 25 μL. Enzyme concentrations were chosen to give a linear rate of FC5 hydrolysis over the first 5 min of the assay time with an FC5 concentration of 5 μM. Components were added in the following order and volumes:
The enzyme was incubated with the inhibitor for 10 min prior to initiation of the reaction by the addition of the substrate. The residual activities were calculated using the following formula:
[formula] IC50 values were calculated by fitting of residual residual activity curves using GraphPad Prism 5 software.

Sequence of L1 (class B3 MBL) (P52700 whole entry, looked up): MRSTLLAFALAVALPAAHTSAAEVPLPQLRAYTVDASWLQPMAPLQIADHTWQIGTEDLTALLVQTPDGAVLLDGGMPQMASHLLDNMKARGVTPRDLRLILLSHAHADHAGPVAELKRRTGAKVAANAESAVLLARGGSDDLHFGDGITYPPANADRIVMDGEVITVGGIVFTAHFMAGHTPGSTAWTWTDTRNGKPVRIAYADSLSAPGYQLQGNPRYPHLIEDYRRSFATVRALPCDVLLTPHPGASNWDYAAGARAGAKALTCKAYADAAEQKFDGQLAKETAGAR

For the compound `C[C@H]1[C@H](NC(=O)/C(=N\OC(C)(C)C(=O)O)c2csc(N)n2)C(=O)N1S(=O)(=O)O` [Aztreonam], the MIC was determined as 128 mg/L in assay [1] (read-out: MIC of the β-lactam alone (−), CI-20); 128 mg/L in assay [1] (read-out: MIC of the β-lactam alone (−), CI-29); 256 mg/L in assay [1] (read-out: MIC of the β-lactam alone (−), CI-31); 128 mg/L in assay [1] (read-out: MIC of the β-lactam alone (−), K279a); 128 mg/L in assay [1] (read-out: MIC of the β-lactam alone (−), K AMI 32); 256 mg/L in assay [1] (read-out: MIC of the β-lactam alone (−), K CAZ 10). Besides, the MIC in assay [1] (read-out: MIC of the β-lactam alone (−), K MOX 8) turned out to be 128 mg/L.
By Km is commonly meant the concentration of substrate that gives half-maximal velocity. In general, kcat refers to the number of substrate molecules converted per active site and unit of time at saturation. Regarding `CC(C)(O/N=C(\C(=O)N[C@@H]1C(=O)N2C(C(=O)[O-])=C(C[n+]3ccccc3)CS[C@H]12)c1csc(N)n1)C(=O)O` [Ceftazidime], the Km was determined as 260 µM in assay [2] and 548 µM in assay [3]. Moreover, the kcat in assay [2] came out at 1.67 s⁻¹; in assay [3], 1.88 s⁻¹. In addition, the values for the kcat/KM in assay [2] and in assay [3] were 6.4 (μM^−1 · s^−1) × 10^−3 and 3.4 (μM^−1 · s^−1) × 10^−3, respectively. The “MIC of the β-lactam alone (−)” value amounted to 16 mg/L in assay [1] (CI-20); 8 mg/L in assay [1] (CI-29); 256 mg/L in assay [1] (CI-31); 4 mg/L in assay [1] (K279a); 2 mg/L in assay [1] (K AMI 32); 64 mg/L in assay [1] (K CAZ 10). Also, in assay [1] (K MOX 8), the “MIC of the β-lactam alone (−)” value is reported as 4 mg/L.
In general, IC50 refers to the midpoint of a concentration-inhibition curve. Turning to `C[C@@H](O)[C@H]1C(=O)N2C(C(=O)O)=C([C@H]3CCCO3)S[C@H]12` [Faropenem], the half-maximal inhibitory concentration (IC50) in assay [4] (pre-incubation time 0 min) is 3.72 µM; in assay [4] (pre-incubation time 10 min), 2.51 µM; in assay [4] (pre-incubation time 60 min), 3.55 µM.
The pIC50 is −log10 of the IC50, conventionally taken in molar units. A high value points to a low IC50. `C[C@@H](O)[C@H]1C(=O)N2C(C(=O)O)=C(SCCN=CN)C[C@H]12` [Imipenem]: the pIC50 in assay [4] (pre-incubation time 0 min) came to 5.59 ± 0.01; in assay [4] (pre-incubation time 10 min), 6.09 ± 0.02; in assay [4] (pre-incubation time 60 min), 6.45 ± 0.05.
Turning to `C[C@@H](O)[C@H]1C(=O)N2C(C(=O)O)=C(S[C@@H]3CN[C@H](C(=O)N(C)C)C3)[C@H](C)[C@H]12` [Meropenem], the Km in assay [2] was found to be 105 µM; in assay [3], 28.8 µM. In addition, the kcat in assay [2] is 23.8 s⁻¹; in assay [3] it was 0.028 s⁻¹. Besides, the figures for the kcat/KM in assay [2] and in assay [3] were 227 (μM^−1 · s^−1) × 10^−3 and 0.97 (μM^−1 · s^−1) × 10^−3, respectively. Besides, the pIC50 in assay [4] (pre-incubation time 0 min) turned out to be 5.72 ± 0.06; in assay [4] (pre-incubation time 10 min) it was 6.41 ± 0.05; in assay [4] (pre-incubation time 60 min), 7.16 ± 0.03. In addition, the “MIC of the β-lactam alone (−)” value in assay [1] (CI-20) amounted to 64 mg/L; in assay [1] (CI-29) it was 32 mg/L; in assay [1] (CI-31) it was 256 mg/L; in assay [1] (K279a), 8 mg/L; in assay [1] (K AMI 32) it was 4 mg/L; in assay [1] (K CAZ 10), 64 mg/L. Also, in assay [1] (K MOX 8), the “MIC of the β-lactam alone (−)” value turned out to be 4 mg/L.
As to `C[C@]1(Cn2ccnn2)[C@H](C(=O)O)N2C(=O)C[C@H]2S1(=O)=O` [Tazobactam], the IC50 in assay [4] (pre-incubation time 0 min) was 6.46 µM; in assay [4] (pre-incubation time 10 min) it was 2.75 µM; in assay [4] (pre-incubation time 60 min) it was 3.55 µM.
